# Test results published in ChEMBL document CHEMBL2390817, “Structure-activity relationship of human glutaminyl cyclase inhibitors having an N-(5-methyl-1H-imidazol-1-yl)propyl thiourea template” (Bioorg Med Chem, 2013).
# Biological target: Glutaminyl-peptide cyclotransferase (Homo sapiens, UniProt Q16769)
# Test: Inhibition of human glutaminyl cyclase expressed in HEK293 cells using L-glutaminyl-beta-naphthylamine as substrate after 1 hr by fluorometric analysis; call rule not given here
# Chain of Glutaminyl-peptide cyclotransferase (Q16769 whole entry): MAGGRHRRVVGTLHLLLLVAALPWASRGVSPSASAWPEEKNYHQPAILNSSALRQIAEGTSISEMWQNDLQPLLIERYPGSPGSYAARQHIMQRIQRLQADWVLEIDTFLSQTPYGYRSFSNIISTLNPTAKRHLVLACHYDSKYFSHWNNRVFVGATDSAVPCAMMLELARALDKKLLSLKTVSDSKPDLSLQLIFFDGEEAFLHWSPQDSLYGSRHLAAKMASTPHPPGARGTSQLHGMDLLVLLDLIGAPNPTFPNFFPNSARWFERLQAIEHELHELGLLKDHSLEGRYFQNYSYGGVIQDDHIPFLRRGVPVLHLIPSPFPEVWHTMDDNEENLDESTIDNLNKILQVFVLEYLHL
row,Compound,IC50
1,Cc1cncn1CCCNC(=S)Nc1cccc2cccnc12,Active
2,Cc1cncn1CCCNC(=S)Nc1cccnc1,Active
3,Cc1cncn1CCCNC(=S)Nc1cnc2ccccc2c1,Active
4,Cc1cncn1CCCNC(=S)Nc1cccc2c1OCCO2,Not Active

# Second part, the molecule after the results:
row,IC50,Compound
1,Active,Cc1cncn1CCCNC(=S)Nc1ccc2cnccc2c1
2,Active,Cc1cncn1CCCNC(=S)Nc1ccc2cc[nH]c2c1
3,Active,Cc1cncn1CCCNC(=S)Nc1ccc2c(c1)CCC2
